Earlier results on 1 compound are cited in patent US12462914B2, “Systems and methods for dispensing a statin medication over the counter” (ASTRAZENECA UK LIMITED, priority 2016, dated 2025).

For the data set the following is noted: co-administration of warfarin with a single oral dose of atorvastatin.

Regarding `CC(C)c1c(C(=O)Nc2ccccc2)c(-c2ccccc2)c(-c2ccc(F)cc2)n1CC[C@@H](O)C[C@@H](O)CC(=O)O` [atorvastatin], the “effect on the pharmacokinetics of atorvastatin” value is on record as “no significant effect”.
